Measured values reported in PubChem BioAssay (NCI).
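Five concentrations, 48 hours, 96-well plates. Here, GI50 denotes the concentration required for 50% inhibition of growth. The concentration for full growth arrest is given as TGI.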

What was measured:
Experiment in all cases: inhibition of tumour cell growth, NCI panel, 48 h
[1] = tested on: OVCAR-4 ovarian
[2] = tested on: HOP-92 NSCLC
[3] = tested on: A549 NSCLC
[4] = tested on: OVCAR-5 ovarian
[5] = tested on: ACHN renal
[6] = tested on: MDA-MB-231 breast
[7] = tested on: KM12 colon
[8] = tested on: U251 CNS
[9] = tested on: NCI-H23 lung
[10] = tested on: NCI-H226 lung

Row | SMILES | GI50 [1] [µM] | TGI [1] [µM] | GI50 [2] [µM] | TGI [2] [µM] | GI50 [3] [µM] | TGI [3] [µM] | GI50 [4] [µM] | TGI [4] [µM] | GI50 [5] [µM] | TGI [5] [µM] | GI50 [6] [µM] | TGI [6] [µM] | GI50 [7] [µM] | TGI [7] [µM] | GI50 [8] [µM] | TGI [8] [µM] | GI50 [9] [µM] | TGI [9] [µM] | GI50 [10] [µM] | TGI [10] [µM]
1 | O=C(Nn1c2c(sc1=NC1CC1)C(=O)c1ccccc1C2=O)c1cc2ccc1CCc1ccc(cc1)CC2 | 1.61 | 4.58 | 2.26 | 14.4 | 2.42 | 6.07 | 1.83 | 3.53 | 1.39 | 3.03 | 1.37 | 9.82 | 3.12 | 13.7 | 2.41 | 11.1 | 1.31 | 4.32 | 1.81 | 5.83
2 | Cc1[nH]ccc2cc3nc4ccccc4c3cc12 | 2.65 | 10.7 | 1.3 | 5.64 | 2.5 | 12.2 | 3.35 | 11.9 | 0.963 | 10.6 | 2 | 8.24 | 2.45 | 11.8 | 2.82 | 12.4 | 2.55 | 14.5 | 2.94 | 12.6
3 | O=C1/C(=C/c2ccc(C(F)(F)F)cc2)COc2ccc(O)cc21 | 3.4 | 13 | 11.8 | 24.7 | 11.8 | 24.9 | 2.18 | 5.49 | 1.84 | 3.53 | 2.36 | 5.65 | 1.75 | 3.41 | 1.66 | 3.06 | 2.14 | 5.38 | 2.53 | 8.21
4 | CCOC(CN(C)C(=O)OCC(Cl)(Cl)Cl)OCC | – | > 100 | – | > 100 | – | > 100 | – | > 100 | – | > 100 | – | > 100 | – | > 100 | – | > 100 | – | > 100 | – | > 100
5 | COc1ccc(CC(C#N)c2cc(OC)c(OC)c(OC)c2)cc1 (stereo not given) | – | > 100 | – | 16.7 | – | > 100 | – | > 96.9 | – | > 91.6 | – | 3.29 | – | 4.95 | – | 6.32 | – | 1.96 | – | 14.3
6 | O=C(O)CCc1nc(-c2ccccc2)c(-c2ccccc2)o1 | – | > 100 | – | > 100 | – | > 100 | – | > 100 | – | > 100 | – | > 100 | – | > 100 | – | > 100 | – | > 100 | – | > 100
